Measured values from US11000033B2, “Ketone or oxime compound, and herbicide” (NISSAN CHEMICAL CORPORATION, priority 2014, dated 2021).

Key:
Assay type in all cases: in vivo
Scirpus juncoides = experiment: Test Example 1: herbicidal activity, application before weed generation in submerged conditions (symbol B); details: application herbicide amount 320 g/ha
Method in brief: (§1)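 Flooded alluvial soil (4 cm water) was mixed-sown with the three weed species, and 2.5-leaf rice seedlings were transplanted. On sowing day, a water-diluted emulsion at a predetermined rate was applied to the water surface. After 3 weeks in a 25–30 °C greenhouse, effect was scored 0–5.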

Monochoria vaginalis = experiment: Test Example 1: herbicidal activity, application before weed generation in submerged conditions (symbol C); details: application herbicide amount 320 g/ha
Method in brief: as §1

Cyperus difformis = experiment: Test Example 3: herbicidal effect by foliage application, Wagner pot (symbol E); details: application herbicide amount 320 g/ha; for E herbicidal effect grade: Table 24
Method in brief: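 Plants sown in submerged alluvial soil (water depth 0.1–0.5 cm) in a 25–30 °C greenhouse and grown 14 days. An emulsion of the compound diluted in water to a set herbicide amount was sprayed uniformly on foliage. Effect on each plant scored 3 weeks after application.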

Amaranthus retroflexus = experiment: Test Example 4: herbicidal effect by soil treatment (symbol N)
Method in brief: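 Seeds were sown in sterilized diluvial soil, covered with about 1.5 cm of soil, and the soil surface was sprayed with a water-diluted emulsion of the compound at a predetermined rate. Plants grew in a greenhouse at 25° C. to 30° C.; effects were scored visually 3 weeks after application.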

corn = experiment: Test Example 4: effect on crop by soil treatment (symbol c)
Method in brief: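 Seeds were sown in spots on sterilized diluvial soil in a plastic box and covered with about 1.5 cm of soil. Plants were then grown in a greenhouse at 25° C. to 30° C.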

rapeseed [1] = experiment: Test Example 4: effect on crop by soil treatment (symbol g)
Method in brief: (§2)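 Steps: fill box with sterilized diluvial soil; sow seed spot-like; cover with ~1.5 cm soil; grow in greenhouse (25° C. to 30° C.).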

Setaria viridis = experiment: Test Example 5: herbicidal effect by foliage application, plastic box (symbol G); details: 320 g/ha, 3 weeks after application
Method in brief: (§3)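 Seeds were sown in sterilized diluvial soil, covered with about 1.5 cm of soil and grown 14 days in a greenhouse at 25° C. to 30° C. An emulsifiable formulation diluted in water to a set rate was sprayed over foliage, and injury was scored 3 weeks later.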

Lolium multiflorum Lam. = experiment: Test Example 5: herbicidal effect by foliage application, plastic box (symbol K); details: 320 g/ha, 3 weeks after application
Method in brief: as §3

Apera spica-venti = experiment: Test Example 5: herbicidal effect by foliage application, plastic box (symbol L); details: 320 g/ha, 3 weeks after application
Method in brief: as §3

Galium spurium = experiment: Test Example 5: herbicidal effect by foliage application, plastic box (symbol Q); details: 320 g/ha, 3 weeks after application
Method in brief: as §3

wheat = experiment: Test Example 5: effect on crop by foliage application, plastic box (symbol e); details: 320 g/ha, 3 weeks after application
Method in brief: (§4)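 Crop and weed seeds sown in spots in sterilized diluvial soil in plastic boxes and covered with about 1.5 cm soil. Plants raised in a greenhouse at 25° C. to 30° C. for foliar application.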

beet [2] = experiment: Test Example 5: effect on crop by foliage application, plastic box (symbol f); details: 320 g/ha, 3 weeks after application
Method in brief: as §4

rapeseed [3] = experiment: Test Example 5: effect on crop by foliage application, plastic box (symbol g); details: 320 g/ha, 3 weeks after application
Method in brief: as §4

beet [4] = experiment: Test Example 4: effect on crop by soil treatment (symbol f); details: for Effect on crop grade, f: beet: application herbicide amount 320 g/ha
Method in brief: as §2

[5] = application herbicide amount 320 g/ha

Structure (SMILES)	Herbicidal effect grade, B: Scirpus juncoides (Scirpus juncoides)	Herbicidal effect grade, C: Monochoria vaginalis (Monochoria vaginalis)	herbicidal effect on E, grade 0-5 (Cyperus difformis)	G: Setaria viridis, herbicidal effect grade (Setaria viridis)	K: Lolium multiflorum Lam., herbicidal effect grade (Lolium multiflorum Lam.)	L: Apera spica-venti, herbicidal effect grade (Apera spica-venti)	e: wheat, effect on crop grade (wheat)	f: beet, effect on crop grade (beet [2])	g: rapeseed, effect on crop grade (rapeseed [3])	B (Scirpus juncoides) herbicidal effect grade (Scirpus juncoides)	C (Monochoria vaginalis) herbicidal effect grade (Monochoria vaginalis)	E herbicidal effect grade (Cyperus difformis)	Herbicidal effect grade, N: Amaranthus retroflexus (Amaranthus retroflexus; [5])	Effect on crop grade, c: corn (corn; [5])	Effect on crop grade, f: beet (beet [4])	Effect on crop grade, g: rapeseed (rapeseed [1]; [5])	further results
C=CCOC1=C(c2c(C)cc(C)cc2C)C(=O)C(CC(C)=NOC)C1 (stereo not drawn) [1-007]	0 (Herbicidal ratio of 5% or lower (almost no effect))	0 (Herbicidal ratio of 5% or lower (almost no effect))	0 (Herbicidal ratio of 5% or lower (almost no effect))	0 (Herbicidal ratio of 5% or lower (almost no effect))	5 (Herbicidal ratio of 90% or more (almost completely withered))	1 (Herbicidal ratio of 5% or higher and lower than 20%)	0 (Herbicidal ratio of 5% or lower (almost no effect))	0 (Herbicidal ratio of 5% or lower (almost no effect))	0 (Herbicidal ratio of 5% or lower (almost no effect))								N (Amaranthus retroflexus) herbicidal effect grade (Amaranthus retroflexus; [5]): 0 (Herbicidal ratio of 5% or lower (almost no effect)); c (corn) effect on crop grade (corn; [5]): 0 (Herbicidal ratio of 5% or lower (almost no effect)); g (rapeseed) effect on crop grade (rapeseed [1]; [5]): 0 (Herbicidal ratio of 5% or lower (almost no effect)); Q: Galium spurium, herbicidal effect grade (Galium spurium): 0 (Herbicidal ratio of 5% or lower (almost no effect))
CC(CC1CC(O)=C(c2c(C)cc(C)cc2C)C1=O)=NOCC1CC1(F)F (stereo not drawn) [1-109]	5 (Herbicidal ratio of 90% or more (almost completely withered))	3 (Herbicidal ratio of 40% or higher and lower than 70%)	5 (Herbicidal ratio of 90% or more (almost completely withered))														N: Amaranthus retroflexus, herbicidal effect grade (Amaranthus retroflexus; 320 g/ha): 3 (Herbicidal ratio of 40% or higher and lower than 70%); c: corn, effect grade on crop (corn; 320 g/ha): 1 (Herbicidal ratio of 5% or higher and lower than 20%); f: beet, effect grade on crop (beet [4]; 320 g/ha): 0 (Herbicidal ratio of 5% or lower (almost no effect)); g: rapeseed, effect grade on crop (rapeseed [1]; 320 g/ha): 4 (Herbicidal ratio of 70% or higher and lower than 90%); G: Setaria viridis, herbicidal effect (criteria 0-5) (Setaria viridis): 5 (Herbicidal ratio of 90% or more (almost completely withered)); K: Lolium multiflorum Lam., herbicidal effect (criteria 0-5) (Lolium multiflorum Lam.): 5 (Herbicidal ratio of 90% or more (almost completely withered)); L: Apera spica-venti, herbicidal effect (criteria 0-5) (Apera spica-venti): 5 (Herbicidal ratio of 90% or more (almost completely withered)); e: wheat, effect on crop (criteria 0-5) (wheat): 5 (Herbicidal ratio of 90% or more (almost completely withered)); f: beet, effect on crop (criteria 0-5) (beet [2]): 0 (Herbicidal ratio of 5% or lower (almost no effect)); g: rapeseed, effect on crop (criteria 0-5) (rapeseed [3]): 4 (Herbicidal ratio of 70% or higher and lower than 90%)
Cc1cc(Br)cc(C)c1C1=C(O)CC(CC(=NOCC(F)(F)F)C2CC2)C1=O (stereo not drawn) [9-009]				5 (Herbicidal ratio of 90% or more (almost completely withered))	5 (Herbicidal ratio of 90% or more (almost completely withered))	5 (Herbicidal ratio of 90% or more (almost completely withered))	0 (Herbicidal ratio of 5% or lower (almost no effect))	0 (Herbicidal ratio of 5% or lower (almost no effect))	3 (Herbicidal ratio of 40% or higher and lower than 70%)	0 (Herbicidal ratio of 5% or lower (almost no effect))	0 (Herbicidal ratio of 5% or lower (almost no effect))	4 (Herbicidal ratio of 70% or higher and lower than 90%)	0 (Herbicidal ratio of 5% or lower (almost no effect))	0 (Herbicidal ratio of 5% or lower (almost no effect))	0 (Herbicidal ratio of 5% or lower (almost no effect))	0 (Herbicidal ratio of 5% or lower (almost no effect))	
CC#Cc1cc(C)c(C2=C(OC(=O)COc3ccccc3)CC(CC(C)=NOCC(F)(F)F)C2=O)c(C)c1 (stereo not drawn) [9-013]				5 (Herbicidal ratio of 90% or more (almost completely withered))	5 (Herbicidal ratio of 90% or more (almost completely withered))	5 (Herbicidal ratio of 90% or more (almost completely withered))	4 (Herbicidal ratio of 70% or higher and lower than 90%)	4 (Herbicidal ratio of 70% or higher and lower than 90%)	4 (Herbicidal ratio of 70% or higher and lower than 90%)	5 (Herbicidal ratio of 90% or more (almost completely withered))	1 (Herbicidal ratio of 5% or higher and lower than 20%)	5 (Herbicidal ratio of 90% or more (almost completely withered))	1 (Herbicidal ratio of 5% or higher and lower than 20%)	5 (Herbicidal ratio of 90% or more (almost completely withered))	5 (Herbicidal ratio of 90% or more (almost completely withered))	4 (Herbicidal ratio of 70% or higher and lower than 90%)	
COCCON=C(CC1CC(O)=C(c2c(C)cc(-n3cc(Cl)cn3)cc2C)C1=O)C1CC1 (stereo not drawn) [9-020]				5 (Herbicidal ratio of 90% or more (almost completely withered))	5 (Herbicidal ratio of 90% or more (almost completely withered))	4 (Herbicidal ratio of 70% or higher and lower than 90%)	2 (Herbicidal ratio of 20% or higher and lower than 40%)	0 (Herbicidal ratio of 5% or lower (almost no effect))	4 (Herbicidal ratio of 70% or higher and lower than 90%)	4 (Herbicidal ratio of 70% or higher and lower than 90%)	1 (Herbicidal ratio of 5% or higher and lower than 20%)	5 (Herbicidal ratio of 90% or more (almost completely withered))	0 (Herbicidal ratio of 5% or lower (almost no effect))	0 (Herbicidal ratio of 5% or lower (almost no effect))	0 (Herbicidal ratio of 5% or lower (almost no effect))	0 (Herbicidal ratio of 5% or lower (almost no effect))	
CC#Cc1cc(C)c(C2=C(O)CC(CC(=NOCCOC)C3CC3)C2=O)c(C)c1 (stereo not drawn) [9-021]				5 (Herbicidal ratio of 90% or more (almost completely withered))	5 (Herbicidal ratio of 90% or more (almost completely withered))	5 (Herbicidal ratio of 90% or more (almost completely withered))	4 (Herbicidal ratio of 70% or higher and lower than 90%)	0 (Herbicidal ratio of 5% or lower (almost no effect))	4 (Herbicidal ratio of 70% or higher and lower than 90%)	5 (Herbicidal ratio of 90% or more (almost completely withered))	2 (Herbicidal ratio of 20% or higher and lower than 40%)	5 (Herbicidal ratio of 90% or more (almost completely withered))	0 (Herbicidal ratio of 5% or lower (almost no effect))	3 (Herbicidal ratio of 40% or higher and lower than 70%)	0 (Herbicidal ratio of 5% or lower (almost no effect))	2 (Herbicidal ratio of 20% or higher and lower than 40%)	
